# Test results: patent US20130109693A1, “DERIVATIVES OF PYRIDO [3,2-D] PYRIMIDINE, METHODS FOR PREPARATION THEREOF AND THERAPEUTIC USES THEREOF” (UNIVERSITE D'ORLEANS, priority 2010, published 2013)
row,SMILES,melting point [°C]
1,"Oc1cccc(-c2ncc3ncc(Cl)cc3n2)c1 [Compound 18, 7-Chloro-2-(3-hydroxyphenyl)-pyrido[3,2-d]pyrimidine]",252 to 253
2,"COc1cccc(-c2nc(-c3ccccc3)c3ncc(-c4csc5ccccc45)cc3n2)c1 [Compound 14, 7-(3-Benzothienyl)-2-(3-methoxyphenyl)-4-phenyl-pyrido[3,2-d]pyrimidine]",112 to 113
3,"Oc1ccc(-c2ncc3ncc(-c4ccc(S)cc4)cc3n2)cc1 [Compound 27, 2-(4-Hydroxyphenyl)-7-(4-mercaptophenyl)-pyrido[3,2-d]pyrimidine]",222 to 223
4,"Oc1ccc(-c2cnc3cnc(-c4ccccc4O)nc3c2)cc1 [Compound 31, 2-(2-Hydroxyphenyl)-7-(4-hydroxyphenyl)-pyrido[3,2-d]pyrimidine]",> 268
5,"O=Cc1cccc(-c2cnc3cnc(-c4ccc(O)cc4)nc3c2)c1 [Compound 44, 2-(4-Hydroxyphenyl)-7-(3-formylphenyl)-pyrido[3,2-d]pyrimidine]",266
6,"COCOc1ccc(-c2ncc3ccc(-c4csc(CN5CCN(C)CC5)c4)nc3n2)cc1 [Compound 77, 2-(4-Methoxymethoxy-phenyl)-7-[5-(4-methyl-piperazin-1-ylmethyl)-thiophen-3-yl]-pyrido[2,3-d]pyrimidine]",> 268
7,"Oc1ccc(-c2ncc3ccc(-c4csc(CN5CCOCC5)c4)nc3n2)cc1 [Compound 79, 4-[7-(5-Morpholin-4-ylmethyl-thiophen-3-yl)-pyrido[2,3-d]pyrimidin-2-yl]-phenol]",> 268
8,"COc1ccc(-c2cnc3c(-c4ccccc4)nc(-c4cccc(OC)c4)nc3c2)cc1 [Compound 8, 2-(3-Methoxyphenyl)-7-(4-methoxyphenyl)-4-phenyl-pyrido[3,2-d]-pyrimidine]",147 to 148
9,"Oc1ccc(Nc2cnc3cnc(-c4ccc(O)cc4)nc3c2)cc1 [Compound 58, 2-(4-Hydroxyphenyl)-7-(4-hydroxyphenylamino)-pyrido[3,2-d]pyrimidine]",168 to 170
10,"COCOc1ccc(-c2ncc3ccc(-c4csc(CN5CCCCC5)c4)nc3n2)cc1 [Compound 75, 2-(4-Methoxymethoxy-phenyl)-7-(5-piperidin-1-ylmethyl-thiophen-3-yl)-pyrido[2,3-d]pyrimidine]",> 268
11,"Oc1ccc(-c2ncc3ncc(Nc4ccncc4)cc3n2)cc1 [Compound 55, 2-(4-Hydroxyphenyl)-7-(4-pyridinylamino)-pyrido[3,2-d]pyrimidine]",> 268
12,"O=C1CCCCN1c1cnc2cnc(-c3ccc(O)cc3)nc2c1 [Compound 69, 1-[2-(4-Hydroxy-phenyl)-pyrido[3,2-d]pyrimidin-7-yl]-piperidin-2-one]",268 to 270
13,"COc1cccc(-c2nc(-c3ccccc3)c3ncc(-c4ccc(C(C)=O)cc4)cc3n2)c1 [Compound 9, 7-(4-Acetylphenyl)-2-(3-methoxyphenyl)-4-phenyl-pyrido[3,2-d]pyrimidine]",133 to 134
14,"O=C1CCCN1c1cnc2cnc(-c3ccc(O)cc3)nc2c1 [Compound 72, 1-[2-(4-Hydroxy-phenyl)-pyrido[3,2-d]pyrimidin-7-yl]-pyrrolidin-2-one]",> 268
15,"COc1ccc(-c2nc(-c3ccccc3)c3ncc(Cl)cc3n2)cc1 [Compound 5, 7-Chloro-2-(4-methoxyphenyl)-4-phenyl-pyrido[3,2-d]pyrimidine]",193 to 194
16,"COc1cccc(-c2nc(-c3ccccc3)c3ncc(-c4cccnc4)cc3n2)c1 [Compound 13, 2-(3-Methoxyphenyl)-4-phenyl-7-(3-pyridyl)-pyrido[3,2-d]pyrimidine]",134 to 135
17,"OCc1cccc(-c2cnc3cnc(-c4ccc(O)cc4)nc3c2)c1 [Compound 45, 2-(4-Hydroxyphenyl)-7-(3-hydroxymethylphenyl)-pyrido[3,2-d]pyrimidine]",232
18,"COc1ccccc1-c1nc(-c2ccccc2)c2ncc(Cl)cc2n1 [Compound 7, 7-Chloro-2-(2-methoxyphenyl)-4-phenyl-pyrido[3,2-d]pyrimidine]",116 to 117
19,"COCOc1ccc(-c2ncc3ncc(Cl)cc3n2)cc1 [Compound 64, 7-Chloro-2-(4-methoxymethoxy-phenyl)-pyrido[3,2-d]pyrimidine]",> 268
20,"COc1cc(O)ccc1-c1cnc2cnc(-c3ccc(O)cc3)nc2c1 [Compound 43, 2-(4-hydroxyphenyl)-7-(2-methoxy-4-hydroxyphenyl)-pyrido[3,2-d]pyrimidine]",207 to 208
21,"Oc1ccc(-c2ncc3ncc(-c4ccoc4)cc3n2)cc1 [Compound 36, 2-(4-Hydroxyphenyl)-7-(3-furyl)-pyrido[3,2-d]pyrimidine]",> 268

row,SMILES,melting point [°C]
1,"O=C1CNCCN1c1cnc2cnc(-c3ccc(O)cc3)nc2c1 [Compound 70, 1-[2-(4-Hydroxy-phenyl)-pyrido[3,2-d]pyrimidin-7-yl]-piperazin-2-one]",> 268
2,"O=Cc1ccc(-c2cnc3cnc(-c4ccc(O)cc4)nc3c2)cc1 [Compound 42, 2-(4-Hydroxyphenyl)-7-(4-formylphenyl)-pyrido[3,2-d]pyrimidine]",> 268
3,"OCCNc1nc(NCc2ccccc2)c2ncc(Nc3ncncn3)cc2n1 [Compound 88, 4-Benzylamino-2-(2-hydroxyethylamino)-7-(1,3,5-triazinylamino)-pyrido[3,2-d]pyrimidine]",202 to 203
4,"Oc1ccccc1-c1ncc2ncc(Cl)cc2n1 [Compound 19, 7-Chloro-2-(2-hydroxyphenyl)-pyrido[3,2-d]pyrimidine]",211 to 212
5,"Oc1ccc(-c2ncc3ccc(-c4csc(CN5CCCCC5)c4)nc3n2)cc1 [Compound 78, 4-[7-(5-Piperidin-1-ylmethyl-thiophen-3-yl)-pyrido[2,3-d]pyrimidin-2-yl]-phenol]",> 268
6,"Oc1ccc(-c2ncc3ncc(Nc4ccccn4)cc3n2)cc1 [Compound 57, 2-(4-Hydroxyphenyl)-7-(2-pyridinylamino)-pyrido[3,2-d]pyrimidine]",> 268
7,"COc1cccc(-c2nc(-c3ccccc3)c3ncc(-c4ccco4)cc3n2)c1 [Compound 12, 7-(2-Furyl)-2-(3-methoxyphenyl)-4-phenyl-pyrido[3,2-d]pyrimidine]",131 to 132
8,"OCCNc1nc(NCc2ccccc2)c2ncc(Cl)cc2n1 [Compound 82, 4-Benzylamino-7-chloro-2-(2-hydroxyethylamino)-pyrido[3,2-d]pyrimidine]",106 to 107
9,"O=C(Nc1cnc2cnc(-c3ccc(O)cc3)nc2c1)c1ccncc1 [Compound 71, N-[2-(4-Hydroxy-phenyl)-pyrido[3,2-d]pyrimidin-7-yl]isonicotinamide]",230 to 232
10,"COCOc1ccc(-c2ncc3ncc(N4CCCCC4=O)cc3n2)cc1 [Compound 66, 1-[2-(4-Methoxymethoxy-phenyl)-pyrido[3,2-d]pyrimidin-7-yl]-piperidin-2-one]",202 to 204
11,"COCOc1ccc(-c2ncc3ncc(N4CCNCC4=O)cc3n2)cc1 [Compound 67, 1-[2-(4-Methoxymethoxy-phenyl)-pyrido[3,2-d]pyrimidin-7-yl]-piperazin-2-one]",200 to 202
12,"COc1cccc(-c2nc(-c3ccccc3)c3ncc(Cl)cc3n2)c1 [Compound 6, 7-Chloro-2-(3-methoxyphenyl)-4-phenyl-pyrido[3,2-d]pyrimidine]",112 to 113
13,"Oc1ccc(-c2cnc3cnc(-c4cccc(O)c4)nc3c2)cc1 [Compound 30, 2-(3-Hydroxyphenyl)-7-(4-hydroxyphenyl)-pyrido[3,2-d]pyrimidine]",> 268
14,"COc1cccc(-c2nc(-c3ccccc3)c3ncc(-c4cccs4)cc3n2)c1 [Compound 15, 2-(3-Methoxyphenyl)-4-phenyl-7-(2-thienyl)-pyrido[3,2-d]pyrimidine]",140 to 141
15,"COCOc1ccc(-c2ncc3ccc(-c4csc(CN5CCOCC5)c4)nc3n2)cc1 [Compound 76, 2-(4-Methoxymethoxy-phenyl)-7-(5-morpholin-4-ylmethyl-thiophen-3-yl)-pyrido[2,3-d]pyrimidine]",> 268
16,"COCOc1ccc(-c2ncc3ncc(NC(=O)c4cccnc4)cc3n2)cc1 [Compound 65, N-[2-(4-Methoxymethoxy-phenyl)-pyrido[3,2-d]pyrimidin-7-yl]-nicotinamide]",232
17,"Clc1cnc2c(-c3ccccc3)nc(-c3ccccc3)nc2c1 [Compound 4, 7-Chloro-2,4-diphenyl-pyrido[3,2-d]pyrimidine]",120 to 121
18,"N#Cc1ccc(-c2cnc3cnc(-c4ccc(O)cc4)nc3c2)cc1 [Compound 28, 2-(4-Hydroxyphenyl)-7-(4-cyanophenyl)-pyrido[3,2-d]pyrimidine]",313 to 314
19,"O=C(Nc1cnc2cnc(-c3ccc(O)cc3)nc2c1)c1cccnc1 [Compound 68, N-[2-(4-Hydroxy-phenyl)-pyrido[3,2-d]pyrimidin-7-yl]nicotinamide]",226 to 228
20,"N#Cc1cccc(-c2cnc3cnc(-c4ccc(O)cc4)nc3c2)c1 [Compound 29, 2-(4-Hydroxyphenyl)-7-(3-cyanophenyl)-pyrido[3,2-d]pyrimidine]",> 268
